Measured values from US11612595B2, “Compositions and methods for treating rheumatoid arthritis” (Generos Biopharma Ltd., priority 2017, dated 2023).

Legend:
[1] = weight changes in rat AIA model; assay type: in vivo, rats
Protocol: FIG. 4 is a graph depicting weight changes in four groups of rat AIA models under different treatment schemes. Vehicle refers to the group of AIA model rats treated with DMSO. Therapeutic refers to the group of AIA model rats treated with pimozide (Sigma-Aldrich) 10 mg/kg in 30% PEG300 solution starting from day 13. Prophylactic refers to the group of AIA model rats treated with pimozide (Sigma-Aldrich) 10 mg/kg in 30% PEG300 solution starting from day 0. Normal refers to the group of rats without AIA model inducement.
Three groups (10 rats in each group) of female rats (age 8 weeks) were subject to AIA model induction and then to different treatment schemes. Specifically, 100 ug mBSA mixed with CFA was injected s.c. to flank near tail, and one dose of B. pertusiss was injected i.p. the next day to boost the immune reaction. The first of the three groups of rats were treated with DMSO (Vehicle). The second of the three groups of rats were treated with pimozide (Sigma-Aldrich) 10 mg/kg of body weight (same unit are used throughout this application) in 30% PEG300 solution via intraperitoneal injection with collagen injection starting from day 7 (Therapeutic). The last of the three groups of rats were treated with pimozide (Sigma-Aldrich) 10 mg/kg in 30% PEG300 solution via intraperitoneal injection either with collagen injection starting from day 0. […]

STAT5 = target: T1, STAT5 (Homo sapiens, UniProt P42229+P51692); set-up: in Bcr-Abl+ K562 and KU812 cultures; endogenous in cells; host or cells: K562 and KU812 cells; conditions: cited from earlier work
T1 sequence (P42229 1-794): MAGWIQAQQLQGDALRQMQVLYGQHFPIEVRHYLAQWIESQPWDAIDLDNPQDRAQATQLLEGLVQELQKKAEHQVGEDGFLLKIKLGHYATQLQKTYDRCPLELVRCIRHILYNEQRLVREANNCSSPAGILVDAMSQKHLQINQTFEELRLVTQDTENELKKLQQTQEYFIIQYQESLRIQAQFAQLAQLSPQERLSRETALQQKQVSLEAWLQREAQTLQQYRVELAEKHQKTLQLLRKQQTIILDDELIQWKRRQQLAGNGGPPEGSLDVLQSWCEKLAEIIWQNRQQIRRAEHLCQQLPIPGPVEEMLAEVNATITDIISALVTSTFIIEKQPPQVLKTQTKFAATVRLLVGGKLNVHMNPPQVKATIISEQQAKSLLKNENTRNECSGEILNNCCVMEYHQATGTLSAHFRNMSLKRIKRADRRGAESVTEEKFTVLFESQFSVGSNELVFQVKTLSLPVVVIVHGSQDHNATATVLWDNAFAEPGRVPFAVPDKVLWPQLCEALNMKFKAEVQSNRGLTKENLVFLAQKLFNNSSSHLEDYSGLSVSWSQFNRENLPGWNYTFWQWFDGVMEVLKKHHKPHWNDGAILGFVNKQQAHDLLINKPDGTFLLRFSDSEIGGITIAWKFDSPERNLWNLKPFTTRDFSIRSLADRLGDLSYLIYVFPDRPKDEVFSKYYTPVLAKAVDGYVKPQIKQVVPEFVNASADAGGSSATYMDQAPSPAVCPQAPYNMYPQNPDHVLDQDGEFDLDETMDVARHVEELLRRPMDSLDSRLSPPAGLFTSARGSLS
T1 sequence (P51692 1-787): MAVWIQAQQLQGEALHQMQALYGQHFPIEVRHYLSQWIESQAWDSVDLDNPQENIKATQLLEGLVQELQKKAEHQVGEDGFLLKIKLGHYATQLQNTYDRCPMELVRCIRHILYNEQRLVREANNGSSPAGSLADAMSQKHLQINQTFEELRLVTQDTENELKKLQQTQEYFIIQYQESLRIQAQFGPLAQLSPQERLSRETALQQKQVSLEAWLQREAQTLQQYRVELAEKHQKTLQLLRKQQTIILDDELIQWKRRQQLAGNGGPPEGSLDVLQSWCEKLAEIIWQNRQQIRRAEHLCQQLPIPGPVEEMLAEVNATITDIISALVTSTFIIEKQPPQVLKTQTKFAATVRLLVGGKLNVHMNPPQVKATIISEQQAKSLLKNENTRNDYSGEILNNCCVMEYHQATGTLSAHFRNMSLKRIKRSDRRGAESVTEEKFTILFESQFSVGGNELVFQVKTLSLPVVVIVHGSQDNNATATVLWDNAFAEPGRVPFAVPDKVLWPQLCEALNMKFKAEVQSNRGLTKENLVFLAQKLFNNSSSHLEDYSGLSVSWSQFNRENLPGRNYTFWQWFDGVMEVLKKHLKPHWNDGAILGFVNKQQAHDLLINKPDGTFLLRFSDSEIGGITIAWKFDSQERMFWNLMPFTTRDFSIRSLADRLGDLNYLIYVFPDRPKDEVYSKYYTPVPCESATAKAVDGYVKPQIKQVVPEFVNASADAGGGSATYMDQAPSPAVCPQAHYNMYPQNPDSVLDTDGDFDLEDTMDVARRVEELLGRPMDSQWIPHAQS

O=c1[nH]c2ccccc2n1C1CCN(CCCC(c2ccc(F)cc2)c2ccc(F)cc2)CC1 [pimozide, 1-[1-[4,4-bis(4-fluorophenyl)butyl]-4-piperidinyl]-1,3-dihydro-2H-benzimidazole-2-one]
weight changes vs Vehicle ([1]; Prophylactic group, 10 mg/kg i.p. from day 0, at each time point): No significant difference
weight changes vs Vehicle ([1]; Therapeutic group, 10 mg/kg i.p., at each time point): No significant difference
STAT5 transcription activity (STAT5; 5 μM for 18 h, Bcr-Abl+ K562 and KU812 cultures): inhibits
expression of STAT5 target genes (STAT5; CML cell lines): decreased
